Assay results: PubChem BioAssay (NCI)
“And” between values parts separate entries of the source, which are not always exact repeats. Equal entries are not always repeated.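 A five-concentration, 48-hour dose response in 96-well plates underlies each endpoint, interpolated linearly between surrounding concentrations. The concentration for 50% growth inhibition is given as GI50. Definition used: TGI = concentration required for complete inhibition of growth.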

How the values were obtained:
Assay in all cases: inhibition of tumour cell growth, NCI panel, 48 h
COLO 205 colon = test system: COLO 205 colon
EKVX NSCLC = test system: EKVX NSCLC
HOP-92 NSCLC = test system: HOP-92 NSCLC
K-562 leukemia = test system: K-562 leukemia
LOX IMVI melanoma = test system: LOX IMVI melanoma
M14 melanoma = test system: M14 melanoma
OVCAR-5 ovarian = test system: OVCAR-5 ovarian
SF-268 CNS = test system: SF-268 CNS
SK-MEL-2 melanoma = test system: SK-MEL-2 melanoma
SK-MEL-28 melanoma = test system: SK-MEL-28 melanoma
SK-MEL-5 melanoma = test system: SK-MEL-5 melanoma

| SMILES | TGI (COLO 205 colon) | TGI (EKVX NSCLC) | TGI (HOP-92 NSCLC) | TGI (K-562 leukemia) | TGI (LOX IMVI melanoma) | TGI (M14 melanoma) | TGI (OVCAR-5 ovarian) | TGI (SF-268 CNS) | TGI (SK-MEL-2 melanoma) | TGI (SK-MEL-28 melanoma) | TGI (SK-MEL-5 melanoma) | GI50 (LOX IMVI melanoma) | GI50 (COLO 205 colon) | GI50 (EKVX NSCLC) | GI50 (HOP-92 NSCLC) | GI50 (K-562 leukemia) | GI50 (OVCAR-5 ovarian) | GI50 (SF-268 CNS) | GI50 (SK-MEL-28 melanoma) | GI50 (SK-MEL-5 melanoma) |
| --- | --- | --- | --- | --- | --- | --- | --- | --- | --- | --- | --- | --- | --- | --- | --- | --- | --- | --- | --- | --- |
| OC(CC1CCCCN1)c1ccc2c(c1)oc1ccccc12 (stereo unspecified) | 45.2 µM | > 100 µM | > 100 µM | > 100 µM | > 100 µM | 45 µM | > 100 µM | > 100 µM | > 100 µM | > 100 µM | 34.1 µM |  |  |  |  |  |  |  |  |  |
| CN(C)CCNC(=O)c1cccc2c(=O)c3ccccc3oc12 | 19.4 µM | > 86.9 µM | 60.1 µM | > 100 µM | 43.4 µM |  | > 82.9 µM | > 100 µM | 98.9 µM | > 100 µM | 60.5 µM |  |  |  |  |  |  |  |  |  |
| Cc1n(CC(C)C)c2c([n+]1C)C(=O)c1ccccc1C2=O | 0.0575 µM | 0.649 µM | 4.44 µM | > 100 µM | 0.867 µM | 1.06 µM | 0.824 µM | 0.155 µM | 0.524 µM | 2.98 µM | 0.139 µM |  |  |  |  |  |  |  |  |  |
| CCOP(=Nc1ccc(N(C)C)cc1)(OCC)OCC | > 100 µM | > 100 µM | > 100 µM | > 100 µM |  | > 100 µM | > 100 µM | > 100 µM | > 100 µM | > 100 µM | > 100 µM |  |  |  |  |  |  |  |  |  |
| CCC1C[N+]23CCc4c([nH]c5ccccc45)C2CC1CC3 (stereo unspecified) | > 100 µM | > 100 µM | > 100 µM | > 100 µM | > 100 µM | > 100 µM | > 100 µM | > 100 µM | > 100 µM | > 100 µM | 48.9 µM |  |  |  |  |  |  |  |  |  |
| CN(C)/C=C/C(=CC=[N+](C)C)/C=C/N(C)C |  |  | > 100 µM | > 100 µM | > 100 µM | > 100 µM | > 100 µM | > 100 µM | > 100 µM | > 100 µM | > 100 µM |  |  |  |  |  |  |  |  |  |
| CC(=O)C(C(c1ccccc1)N1CCOCC1)N1CCOCC1 (stereo unspecified) | > 100 µM | > 100 µM | > 100 µM | > 100 µM | > 100 µM | > 100 µM | > 100 µM | > 100 µM | > 100 µM | > 100 µM | > 100 µM |  |  |  |  |  |  |  |  |  |
| Cc1ccc(S(=O)(=O)Nc2cccc3c(=O)[nH]cnc23)cc1 | > 100 µM | > 100 µM | > 100 µM | > 100 µM | > 100 µM | > 100 µM | > 100 µM | > 100 µM | > 100 µM | > 100 µM | > 100 µM |  |  |  |  |  |  |  |  |  |
| CC1=C2C(O)C(C(C)C(=O)N(C)C)CCC2(C)C=CC1=O (stereo unspecified) | > 100 µM | > 100 µM | > 100 µM | > 100 µM | > 100 µM |  | > 100 µM | > 100 µM | > 100 µM | > 100 µM | > 100 µM |  |  |  |  |  |  |  |  |  |
| O=C1C=C(C2OC(CO)C(O)C2O)C(=O)N1 (stereo unspecified) | > 100 µM | > 100 µM | > 100 µM | > 100 µM | > 100 µM |  | > 100 µM | > 100 µM | > 100 µM | > 100 µM | > 100 µM |  |  |  |  |  |  |  |  |  |
| COc1cc2c(cc1O)c(O)cc1c3cc(OC)c(OC)cc3c[n+](C)c21 | > 100 µM | > 100 µM |  | > 80.5 µM | > 55.2 µM | > 100 µM | > 100 µM | > 100 µM | > 100 µM | > 100 µM | 40.2 µM |  |  |  |  |  |  |  |  |  |
| COC1OC(CS(=O)(=O)O)C(O)C(O)C1O (stereo unspecified) | > 100 µM |  | > 100 µM | > 100 µM | > 100 µM | > 100 µM | > 100 µM |  | > 100 µM | > 100 µM | > 100 µM |  |  |  |  |  |  |  |  |  |
| O=C(c1ccccc1)c1ccc2n[se]nc2c1 | 84.1 µM | > 100 µM |  | > 100 µM | > 100 µM | > 100 µM | > 100 µM | > 100 µM | > 100 µM | > 100 µM | > 100 µM |  |  |  |  |  |  |  |  |  |
| Cc1ccc2c(ccc(/C=C/c3ccc(O)c4ncccc34)[n+]2C)c1 | 39.9 µM | 76.6 µM | 31.1 µM | 83.4 µM | 30.2 µM | 40.3 µM | 53.3 µM | 22 µM | 36.3 µM | 33.1 µM | 35.3 µM |  |  |  |  |  |  |  |  |  |
| CCOC(=O)Nc1cc2c(c(N)n1)N=C(c1ccc(OC)cc1)CN2 | 0.196 µM and 0.146 µM | > 100 µM | 48.2 µM | 1.32 µM | 3.15 µM | 19.1 µM | 21.8 µM | > 100 µM | 0.0838 µM |  | 0.141 µM | 0.0144 µM |  |  |  |  |  |  |  |  |
| CCCC(C)c1ccc(OCCCCCCN2CCNCC2)cc1 (stereo unspecified) | 3.42 µM | 6.63 µM | 6.7 µM | 3.97 µM |  |  | 7.9 µM | 9.89 µM |  | 3.65 µM | 3.1 µM |  | 1.65 µM | 2.34 µM | 1.54 µM | 1.51 µM | 2.73 µM | 2.97 µM | 1.84 µM | 1.67 µM |
| N#C[S-].[La+3].c1cnc2c(c1)ccc1cccnc12.c1cnc2c(c1)ccc1cccnc12.c1cnc2c(c1)ccc1cccnc12 | 16.1 µM | 15.5 µM | 18 µM | > 100 µM | 13.3 µM | 3.57 µM | 12.4 µM | 18.9 µM |  | 33.9 µM | 12.7 µM |  |  |  |  |  |  |  |  |  |
